{
  "source": "paper PMC7938888",
  "about": "“Antidepressant drugs act by directly binding to TRKB neurotrophin receptors” (Cell, 2021)",
  "key": {"TRKB [1]": {"target": "T1, TRKB (Mus musculus, UniProt P15209)", "T1 sequence (P15209 32-821)": "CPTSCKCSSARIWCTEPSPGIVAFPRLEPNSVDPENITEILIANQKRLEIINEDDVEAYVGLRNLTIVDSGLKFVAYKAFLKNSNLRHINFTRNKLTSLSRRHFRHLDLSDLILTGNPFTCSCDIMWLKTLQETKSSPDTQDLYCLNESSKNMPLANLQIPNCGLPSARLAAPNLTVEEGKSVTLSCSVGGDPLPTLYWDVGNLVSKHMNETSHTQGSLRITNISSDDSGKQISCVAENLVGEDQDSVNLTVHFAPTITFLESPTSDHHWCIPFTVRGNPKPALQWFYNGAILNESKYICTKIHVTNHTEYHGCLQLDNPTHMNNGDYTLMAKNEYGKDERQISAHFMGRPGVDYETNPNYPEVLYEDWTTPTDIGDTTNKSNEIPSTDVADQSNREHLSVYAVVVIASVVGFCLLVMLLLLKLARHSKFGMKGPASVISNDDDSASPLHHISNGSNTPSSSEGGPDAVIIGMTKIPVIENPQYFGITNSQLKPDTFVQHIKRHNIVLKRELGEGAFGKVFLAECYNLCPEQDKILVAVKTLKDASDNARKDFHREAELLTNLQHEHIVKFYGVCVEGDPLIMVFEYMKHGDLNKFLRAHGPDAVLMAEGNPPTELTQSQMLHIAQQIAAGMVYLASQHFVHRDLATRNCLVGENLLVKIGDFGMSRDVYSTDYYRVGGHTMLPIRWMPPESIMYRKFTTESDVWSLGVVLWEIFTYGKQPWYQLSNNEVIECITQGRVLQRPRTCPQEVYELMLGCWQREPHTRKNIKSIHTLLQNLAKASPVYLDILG", "assay": "Cell-free ligand binding assay on immobilised TRKB from HEK293T lysates", "set-up": "wild-type GFP-tagged full length TRKB or the GFP-tagged Y433F TRKB mutant; host or cells: HEK293T", "conditions": "biotinylated R,R-HNK (Figure 2E)"}, "TRKB:PLC-γ1 interaction": {"system": "TRKB:PLC-γ1 interaction", "assay": "TRKB:PLC-γ1 interaction ELISA in cortical cells", "assay_type": "cell-based, rat", "conditions": "rat cortical cells", "protocol": "The TRKB:pY (phosphorylated TRKB), TRKB:PLC-γ1, PLC-γ1:pTRKB.Y816 interactions and were determined by ELISA, based on the general method described in literature ([Antila et al., 2014]; [Fred et al., 2019]), with minor adjustments. Briefly, white 96-well plates (OptiPlate 96F-HB, Perkin Elmer) were coated with capturing anti-TRKB or PLC-γ1 antibody (1:1000) in carbonate buffer (pH = 9.8) overnight (ON) at 4°C. Following a blocking step with 2%BSA in TBS-T (2 h, RT), samples were incubated ON at 4°C. The incubation with antibody against pTRKB.Y816, PLC-γ1 or pY (1:2000, ON, 4°C) was followed by HRP-conjugated anti-Rb IgG (1:5000, 2h, RT) or HRP-conjugated streptavidin (1:10000, 2h, RT). Finally, the chemiluminescent signal generated by the reaction with ECL was analyzed in a plate reader (Varioskan Flash, Thermo Scientific)."}, "[2]": {"system": "GluR1 subunit of AMPA receptors", "assay": "Surface GluR1 ELISA in cortical cells of TRKB.Y433F mice", "assay_type": "cell-based, mouse", "protocol": "(§1) Briefly, the MG87.TRKB cells or primary cortical cells from rat or mouse embryos, cultivated in clear bottom 96-well plates (ViewPlate 96, Perkin Elmer), were washed with ice-cold PBS and fixed with 100μl of 4% PFA per well. […] Following washing, the samples were incubated with HRP-conjugated anti-goat or anti-rabbit IgG (1:5000 in blocking buffer) for 1h at RT. The cells were washed 4x with 200μl of PBS for 10 min each. Finally, the chemiluminescent signal generated by reaction with ECL was analyzed in a plate reader."}, "NMDA receptors": {"system": "NMDA receptors", "set-up": "method as in Zanos et al., 2016, 2018", "conditions": "ref Zanos et al., 2016, 2018; cited from earlier work"}, "mice [3]": {"system": "mice", "assay": "Ocular dominance plasticity (monocular deprivation, intrinsic signal imaging)", "assay_type": "in vivo, mouse", "protocol": "The “transparent skull” preparation was executed as described in literature ([Steinzeig et al., 2017]). Briefly, adult female mice (20-22 weeks old) were anesthetized via i.p. injection with a mixture containing: 0.05 mg/kg fentanyl (Hameln, Germany); 5 mg/kg midazolam (Hameln, Germany); 0.5 mg/kg medetomidine (Orion Pharma, Finland); diluted in saline (B Braun, Germany). The animals’ eyes were covered with protective-gel (Alcon, UK). The animal’s head was shaved and disinfected with ethanol and Betadine. The mouse head was then fixed on the stereotaxic frame and the temperature was maintained at 37°C. A mixture of lidocaine and adrenaline (Orion Pharma, Finland) was applied locally on the head and the skin was cut with spring scissors. The incision area was restricted 2 mm above the bregma and caudal edge of intraparietal bone. The scalp was removed and a focused air stream and a cotton swab were used to clean and stop bleeding. The periosteum was gently scratched away from the skull with an eye scalpel and the temporal muscles were pushed aside, in order to expose enough space around the area of interest to attach the metal holder. When the skull was smooth, white and dry, fat was removed from the skull rapidly by passing on it a cotton swab soaked in acetone and the air current was used to avoid its penetration into the bone. Then, with a metal stick, a thin layer of cyanoacrylate glue (Loctite 401, Henkel, Germany) was applied to the surface of the skull, in order to make the skull transparent. After waiting 10 minutes for the glue to dry, a first layer of acryl was applied on the skull surface with a brush. Acryl was used to prolong the life of the transparency and was prepared by stirring acrylic powder (EUBECOS, Germany) with methacrylate liquid (Densply, Germany) until a nail-polish consistency was reached. After 30 minutes, a second layer of acryl was applied and was left to dry overnight. Finally, the animals were injected s.c. with 5 mg/kg Carprofen (ScanVet, Nord Ireland) for postoperative analgesia and i.p. with a wake-up composed by: 1.2 mg/kg Naloxone (Orpha-Devel Handels und Vertriebs GmbH, Austria), opioid receptor antagonist; 0.5 mg/kg Flumazenil (Hameln, Germany), GABA-A receptor antagonist; 2.5 mg/kg Atipamezole (Vet Medic animal Health Oy, Finland), adrenergic receptor antagonist; diluted in saline (B Braun, Germany). The next day, isoflurane at 4% was used for a couple of minutes to induce the anesthesia and then it was reduced at 2% for the procedure. The acryl layer was polished only on the area of interest, using a hand drill with a polishing bit. […]\nOptical imaging. The saturation of haemoglobin in the primary visual cortex of the right hemisphere was measured to assess cortical activity ([Cang et al., 2005]; [Kalatsky and Stryker, 2003]). […]"}, "mice [4]": {"system": "mice", "assay": "Object location memory (OLM) test", "assay_type": "in vivo, mouse", "conditions": "wild-type mice, R,R-HNK", "protocol": "Object-location memory (OLM): this test was performed in a square arena (28cm side) with opaque walls containing cues (black stripes or spots). The adult male and female mice (18-22 weeks old) were placed for 3 consecutive days (15min per session) in the arena with two identical objects (table tennis balls glued to caps of 50ml Falcon tubes) in the same position throughout the sessions (pretest)."}, "TRKB [5]": {"target": "T1, TRKB", "assay": "Cell-free ligand binding assay on immobilised TRKB from HEK293T lysates", "set-up": "wild-type GFP-tagged full length TRKB or the GFP-tagged Y433F TRKB mutant; host or cells: HEK293T", "conditions": "biotinylated FLX 1 μM", "protocol": "(§2) The cell-free assays (binding assays) were performed in white 96-well plates, based on the protocol used for western-blotting or ELISA ([Baeza-Raja et al., 2016]; [Das et al., 2015]). The plates were precoated with anti-GFP, anti-FLAG, anti-TRK or anti-TRKB antibody (1:1000) in carbonate buffer (pH 9.8), ON at 4°C. Following blocking with 3% BSA in PBS buffer (2 h at RT), 120 ug of total protein from each sample (of lysates from HEK293T cells transfected to overexpress GFP-TRKB.wt or GFP-TRKB.Y433F) were added and incubated overnight at 4°C under agitation. […] The luminescence was determined via HRP-conjugated streptavidin (1:10000, 1h, RT) activity reaction with ECL by a plate reader. The luminescence signal from blank wells (containing all the reagents but the sample lystates, substituted by the blocking buffer) was used as background. The specific signal was then calculated by subtracting the values of blank wells from the values of the samples with matched concentration of the biotinylated ligand. For Figure 2E, the precipitated TRKB.wt or Y433F was incubated with tritiated imipramine (0-30μM) and the radioactive emission of the ligand was determined by scintillation (OptiPhase Supermix cocktail: #1200-439; MicroBeta2, Perkin-Elmer). The scintillation signal from blank wells was used as background, and the specific signal was then calculated by subtracting the values of blank wells from the values of the samples with matched concentration of the radioactive ligand."}, "TRKB.Y433F": {"target": "T2, TRKB.Y433F (Mus musculus, UniProt P15209, Y433F)", "T2 construct": "wild-type GFP-tagged full length TRKB or the GFP-tagged Y433F TRKB mutant; host or cells: HEK293T", "T2 sequence (P15209 32-821 Y433F)": "as the sequence (P15209 32-821) above, with Y402F counted along it", "assay": "Cell-free ligand binding assay, TRKB.Y433F mutant", "conditions": "tritiated imipramine, biotinylated R,R-HNK", "protocol": "as §2"}, "[6]": {"system": "GluR1 subunit of AMPA receptors", "assay": "Surface GluR1 ELISA in rat cortical cells", "assay_type": "cell-based", "protocol": "as §1"}},
  "data": [
    {"smiles": "N[C@@]1(c2ccccc2Cl)CCC[C@@H](O)C1=O", "note": "[R,R-HNK, 2R,6R-hydroxynorketamine]", "values": [
      {"measurement": "Kd", "setting": "TRKB [1]", "value": 1.82, "unit": "µM"},
      {"measurement": "TRKB interaction with PLC-γ1", "setting": "TRKB:PLC-γ1 interaction", "value": "increased TRKB interaction with PLC-γ1"},
      {"measurement": "increase in surface GluR1 in neurons from TRKB.Y433F mutant mice", "setting": "[2]", "value": "prevented"},
      {"measurement": "affinity to NMDA receptors", "setting": "NMDA receptors", "value": "low affinity"},
      {"measurement": "effect on shift in ocular dominance", "setting": "mice [3]; TRKB.Y433F mice", "value": "lost"},
      {"measurement": "shift in ocular dominance after 7-day monocular deprivation", "setting": "mice [3]; adult mice, 10 mg/kg i.p. every second day for 8 days", "value": "significant shift in OD"},
      {"measurement": "effect on shift in ocular dominance", "setting": "mice [3]; wild-type mice co-treated with pravastatin", "value": "lost"},
      {"measurement": "object location memory", "setting": "mice [4]", "value": "improved object location memory"},
      {"measurement": "displacement of biotinylated FLX from TRKB", "setting": "TRKB [5]", "value": "readily displaced"},
      {"measurement": "Ki", "setting": "TRKB [5]; read-out: Ki for displacement of biotinylated FLX from TRKB", "value": 2.23, "unit": "µM"},
      {"measurement": "affinity to TRKB.Y433F compared with wild-type TRKB", "setting": "TRKB.Y433F", "value": "much lower than to the wild-type TRKB"},
      {"measurement": "cell surface localization of GluR1 subunits of AMPA receptors", "setting": "[6]", "value": "increased cell surface localization of GluR1 subunits"}
    ]}
  ]
}
